Experiment: xn = mol fraction of the nth substance listed
Conditions: Liquid, Vibrating tube method

CCCCCCCO [heptan-1-ol] + CCCCOCCCC
mass density [kg/m3]
Conditions	x2 = 0	x2 = 0.1488	x2 = 0.3201	x2 = 0.4944	x2 = 0.7014	x2 = 0.8534
298.15 K, 100 kPa	818.7	810.1	800.3	790.9	779.5	771.7
298.15 K, 1000 kPa	819.3	810.8	801	791.6	780.2	772.5
298.15 K, 5000 kPa	821.9	813.5	803.9	794.6	783.5	775.8
298.15 K, 10000 kPa	824.9	816.7	807.3	798.3	787.3	779.9
298.15 K, 15000 kPa	828	819.9	810.6	801.8	791	783.7
298.15 K, 20000 kPa	830.8	822.9	813.8	805	794.5	787.4
298.15 K, 25000 kPa	833.5	825.8	816.9	808.3	797.9	790.8
298.15 K, 30000 kPa	836.3	828.6	819.8	811.4	801.1	794.2
298.15 K, 35000 kPa	838.8	831.2	822.6	814.3	804.2	797.4
298.15 K, 40000 kPa	841.3	833.9	825.3	817.1	807.3	800.5
298.15 K, 45000 kPa	843.8	836.5	828	819.9	810.2	803.5
298.15 K, 50000 kPa	846.2	838.9	830.6	822.6	813	806.4
298.15 K, 55000 kPa	848.5	841.3	833.1	825.3	815.7	809.2
298.15 K, 60000 kPa	850.8	843.7	835.5	827.8	818.4	811.9
298.15 K, 65000 kPa	853	845.9	837.9	830.3	820.9	814.6
298.15 K, 70000 kPa	855.2	848.2	840.3	832.7	823.5	817.2
298.15 K, 80000 kPa	859.4	852.6	844.8	837.3	828.3	822.2
298.15 K, 90000 kPa	863.5	856.7	849.1	841.9	833	827
298.15 K, 100000 kPa	867.3	860.7	853.2	846.1	837.4	831.5
298.15 K, 110000 kPa	871.1	864.6	857.2	850.2	841.6	835.8
298.15 K, 120000 kPa	874.6	868.2	861	854	845.6	839.9
298.15 K, 130000 kPa	878.1	871.8	864.6	857.8	849.6	843.9
298.15 K, 140000 kPa	881.5	875.3	868.2	861.4	853.3	847.8
313.15 K, 100 kPa	808	799	788.8	778.9	767	758.8
313.15 K, 1000 kPa	808.6	799.7	789.5	779.7	767.8	759.7
313.15 K, 5000 kPa	811.4	802.6	792.5	783	771.3	763.3
313.15 K, 10000 kPa	814.7	806.1	796.3	786.9	775.6	767.8
313.15 K, 15000 kPa	817.9	809.5	799.8	790.7	779.5	771.9
313.15 K, 20000 kPa	821	812.7	803.3	794.3	783.4	775.9
313.15 K, 25000 kPa	823.8	815.6	806.4	797.5	786.8	779.4
313.15 K, 30000 kPa	826.8	818.8	809.7	801	790.5	783.3
313.15 K, 35000 kPa	829.5	821.6	812.7	804.2	793.7	786.7
313.15 K, 40000 kPa	832.1	824.4	815.5	807.1	796.9	790
313.15 K, 45000 kPa	834.7	827	818.3	810.1	800	793.2
